Patent publication US20090311237A1, “Combination therapy using a soluble hyaluronidase and a bisphosphonate” (priority 2008, published 2009)
Where two headings read alike, the source gives them in different places.

Assay: Pharmacokinetics of ZA in pig serum after IV or SC infusion with or without rHuPH20 (LC-MS-MS, non-compartmental analysis)
Format: in vivo
Conditions: female, Yorkshire, pig, serum, […], pig; for bioavailability / Tmax / half-life / Vd/F: sc, SC ZA […], no rHuPH20 (Study Group 2), n=4; for concentration at 0.05 h / concentration at 5 min / concentration at 0.333 h / concentration at 0.5 h / concentration at 1 h: subcutaneous, Study Group 2, SC, ZA […], rHuPH20 0 U/mL, read-out: Zoledronic Acid Serum Concentration
Description: A pharmacokinetic study of zoledronic acid (ZA) co-administered with rHuPH20 in female Yorkshire swines was conducted. The primary objective of the study was to determine the bioavailability of zoledronic acid dosed via subcutaneous (SC) co-administration with human recombinant hyaluronidase PH20 (rHuPH20) and to compare the overall exposure to an equivalent IV dose.
Animals in Study Group 1 were dosed with 0.15 mg/kg ZA given via a 20-minute IV infusion. Animals in Study Groups 2 and 3 were dosed subcutaneously (SC) with 0.15 mg/kg ZA without and with rHuPH20, respectively, in different SC delivery volumes.
Following ZA dose administration, serial blood samples were collected via vascular access ports (VAPs) for serum preparation and determination of ZA concentrations. Blood collection times were at 1, 3, 5, 10, 15, 20, 30, 45, and 60 minutes, and at 1.5, 2, 3, 4, 6, 8, 10, 24, 48, and 72 hours post dose. Urine samples were also collected to compare excretion characteristics between IV and SC routes of administration. Collection times for urine were at 15 minutes before dosing (−15 min.), continuously from dose initiation to 2 hours post dose, and at 4, 6, 8, and 24 hours post dose thereafter.
Serum concentration of ZA was determined using a qualified LC-MS-MS assay after derivatization with diazomethane (Zhu, L S et al. (2006) Rapid Commun. Mass Spectrom. 20: 3421-3426; “Qualification Data of An LC-MS/MS Method for the Determination of Zoledronate in Porcine Serum”, MDS Pharma Services Study No. AA43671-01, Report Date 14 Sep. 2007). The assay range was from 2.0 to 400 ng/mL with a lower limit of quantitation (LLOQ) at 2.0 ng/mL. Urine concentration of ZA was determined by a similar well qualified LC-MS-MS method (“Qualification Data of An LC-MS/MS Method for the Determination of Zoledronate in Porcine Urine”, MDS Pharma Services Study No. AA43671-02, Report Date 14 Sep. 2007) with an assay LLOQ at 10 ng/mL.
Pharmacokinetic (PK) analyses of ZA serum concentration versus time data were conducted using WinNonlin v5.1 (Pharsight, Mountain View, Calif.). Non-compartmental analysis was used for derivation of primary and secondary pharmacokinetic (PK) parameters. AUC, Cmax, and Tmax were compared between dose routes, between co-administration with rHuPH20, and with dose of rHuPH20.

## O=P(O)(O)C(O)(Cn1ccnc1)P(=O)(O)O [ZA, 1-hydroxy-2-(1H-imidazol-1-yl)ethylidene-1,1-bisphosphonic acid]
read-out: SC Bioavailability (0-8 h), mean
  bioavailability: 87.7 ± 15%
read-out: SC Bioavailability (0-8 h), median
  bioavailability: 86.9%
read-out: Tmax, mean
  Tmax: 12.6 min
read-out: Tmax, median
  Tmax: 10.2 min
read-out: T½ λz, mean (converted)
  half-life: 64.2 ± 14.4 min
read-out: T½ λz, median (converted)
  half-life: 59.4 min
read-out: Vss/F, mean
  Vd/F: 0.607 L/kg
read-out: Vss/F, median
  Vd/F: 0.625 L/kg
read-out: Vz/F, mean
  Vd/F: 0.784 L/kg
read-out: Vz/F, median
  Vd/F: 0.832 L/kg
Pig ID 59, 100 mL, 16 min
  concentration at 0.05 h: 13.9 ng/mL
  concentration at 5 min: 32.4 ng/mL
  concentration at 0.333 h: 130 ng/mL
  concentration at 0.5 h: 120 ng/mL
  concentration at 1 h: 44.6 ng/mL
Pig ID 60, 100 mL, 16 min
  concentration at 0.05 h: 51.5 ng/mL
  concentration at 5 min: 85 ng/mL
  concentration at 0.333 h: 255 ng/mL
  concentration at 0.5 h: 211 ng/mL
  concentration at 1 h: 149 ng/mL
Pig ID 62, 50 mL, 8 min
  concentration at 0.05 h: 97.6 ng/mL
  concentration at 0.333 h: 208 ng/mL
  concentration at 0.5 h: 149 ng/mL
  concentration at 1 h: 81.6 ng/mL
Pig ID 69, 25 mL, 4 min
  concentration at 0.05 h: 144 ng/mL
  concentration at 0.333 h: 210 ng/mL
  concentration at 0.5 h: 115 ng/mL
  concentration at 1 h: 74.6 ng/mL
Pig ID 70, 10 mL, 1.6 min
  concentration at 0.05 h: 174 ng/mL
  concentration at 0.333 h: 233 ng/mL
  concentration at 0.5 h: 191 ng/mL
